Experimental findings from patent publication US10870875B2, “Metalloprotein compositions” (Commonwealth Scientific and Industrial Research Organisation, priority 2014, dated 2020) are described below.

Substitutions are numbered along the chain they refer to.

The target in experiment [1] is T1, Apis mellifera AmelF3 (SEQ ID NO: 39) variant Tyr76Ala (Apis mellifera, UniProt A0ACM8QI31, Y95A).
T1 construct: sponge or film
The experiment in a line: Binding of chelates to AmelF3 Tyr76Ala sponges or films. Conditions: sponge washed with aqueous methanol, qualitative. The method, then: (§1) Site directed mutagenesis of honeybee silk proteins was carried using methods known to the person skilled in the art. For example, to generate AmelF3 Tyr76Ala, the forward primer 5′-[…]-3′ (SEQ ID NO: 80) with the corresponding reverse primer was employed and site directed mutagenesis was carried out using Pfx 50 DNA polymerase from Invitrogen following the Pfx50 manufactures instructions. All AmelF3 mutants were expressed and purified using a similar procedure as the unmodified AmelF3 silk protein. To generate AmelF3 Tyr76His, the forward primer 5′-[…]-3′ (SEQ ID NO: 81) with the corresponding reverse primer was employed. To generate AmelF3 Ala97His, the forward primer 5′-[…]-3′ (SEQ ID NO: 82) was used.
To test whether Tyr76 was indeed the coordinating ligand, the present inventors replaced Tyr76 with an alanine using site directed mutagenesis of the AmelF3 silk gene.

Experiment [2] has as its target T2, Apis mellifera AmelF3 (SEQ ID NO: 39) variant Y76H A97H (Apis mellifera, UniProt A0ACM8QI31, A116H/Y95H).
T2 sequence (A0ACM8QI31 20-335 Y95H/A116H): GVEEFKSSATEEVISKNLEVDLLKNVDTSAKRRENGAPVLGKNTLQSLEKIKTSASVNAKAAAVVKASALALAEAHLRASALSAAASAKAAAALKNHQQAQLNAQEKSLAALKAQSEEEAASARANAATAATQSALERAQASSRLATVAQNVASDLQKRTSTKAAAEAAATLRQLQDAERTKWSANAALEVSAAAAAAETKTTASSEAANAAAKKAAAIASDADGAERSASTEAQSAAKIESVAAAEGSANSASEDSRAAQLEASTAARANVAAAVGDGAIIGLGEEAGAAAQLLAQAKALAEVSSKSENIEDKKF
The experiment in a line: Binding of heme to AmelF3 Y76H A97H. Conditions: Soret peak vs heme ratio. The method, then: as §1
A coordinating His residue (His97) was introduced into AmelF3 with Y76H substitution in the a-position of the coiled-coil.

Experiment [3] deals with T3, Apis mellifera AmelF3 (SEQ ID NO: 39) variant Y76A A97H (Apis mellifera, UniProt A0ACM8QI31, A116H/Y95A).
T3 sequence (A0ACM8QI31 20-335 Y95A/A116H): T2 sequence (A0ACM8QI31 20-335 Y95H/A116H) with H76A
The experiment in a line: Binding of haem to AmelF3 Y76A A97H. Conditions: sharp Soret peak at 413 nm. The procedure: as §1
A coordinating His residue was introduced into AmelF3 with Y76A in the a-position of the coiled-coil.

T1 sequence (A0ACM8QI31 entry or part of it Y95A): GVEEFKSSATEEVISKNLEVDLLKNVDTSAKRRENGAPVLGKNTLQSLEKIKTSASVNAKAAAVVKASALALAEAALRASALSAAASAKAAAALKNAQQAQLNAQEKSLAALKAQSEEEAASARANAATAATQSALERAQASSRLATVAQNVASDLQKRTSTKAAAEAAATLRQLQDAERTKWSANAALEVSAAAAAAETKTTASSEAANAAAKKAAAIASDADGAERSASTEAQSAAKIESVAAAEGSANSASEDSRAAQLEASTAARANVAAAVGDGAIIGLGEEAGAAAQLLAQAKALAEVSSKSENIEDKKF

Turning to `C=CC1=C(C)c2cc3[nH]c(cc4nc(cc5[nH]c(cc1n2)c(C)c5CCC(=O)O)C(CCC(=O)O)=C4C)c(C)c3C=C.[Fe]` [haem b], in experiment [1], the “binding to silk protein (in words)” value was “bound to the silk protein, the metal ion was not coordinated to the polypeptide”. In experiment [2], the “number of heme cofactors bound” value was “two”. Further, the “haem coordination (in words)” value in experiment [3] was “indicative of histidine coordination”.
